Data taken from patent US6429288B1, “Peptides containing an arginine mimetic for the treatment of bone metabolic disorders, their production, and drugs containing these compounds” (Roche Diagnostics GmbH, priority 1997, dated 2002).

Tested on: primary cultures of osteoblasts from fetal rat calvarias
Experiment: in vitro DNA-synthesis assay
Type: cell-based
Experimental: Compounds of general formula (I) were tested in an in vitro DNA-synthesis assay. The cells used were primary cultures of osteoblasts from fetal rat calvarias. The experiments were performed in an analogous manner as published in Pfeilschifter et al., Endocrinology 126, 703 (1990).

Row | Substance | Biological activity in % compared to control (100%) (0.001 μg/ml) [%] | Biological activity in % compared to control (100%) (0.01 μg/ml) [%] | Biological activity in % compared to control (100%) (0.1 μg/ml) [%] | Biological activity in % compared to control (100%) (1.0 μg/ml) [%] | Biological activity in % compared to control (100%) (10 μg/ml) [%]
1 | Ada-SAW | 122 | 148 | 199 | 162 | 188
2 | Ada-Ava-W | 116 | 152 | 182 | 183 | 229
3 | Ada-Aba-W | 173 | 184 | 228 | 223 | 261
